Columns and labels:
[1] = system: topoisomerase II; assay: KDNA decatenation assay; format: biochemical; details: 50 μM drug, 10 min at 37°C, gel
[2] = system: Topo II-DNA cleavage complexes; assay: Cellular Topo II inhibition; format: cell-based, human; details: 90 nM DAU, 130 nM 7, […] 12b; for stabilized Topo II-DNA cleavage complexes, 30 min treatment: DU-145, 30 min; for stabilized Topo II-DNA cleavage complexes, 72 hour treatment: DU-145, 72 h
[3] = system: acetyl tubulin; assay: Western blot of tubulin acetylation in DU-145 cells; details: DU-145, 4 h; DAU 90, 500 nM; 7 130, 500 nM; 12b 1.31, 10 μM
[4] = target: T1, HDAC 8 (Homo sapiens, UniProt Q9BY41); assay: Recombinant HDAC 8 inhibition; details: HDAC 8 vs HDAC 1
T1 sequence (Q9BY41 1-377): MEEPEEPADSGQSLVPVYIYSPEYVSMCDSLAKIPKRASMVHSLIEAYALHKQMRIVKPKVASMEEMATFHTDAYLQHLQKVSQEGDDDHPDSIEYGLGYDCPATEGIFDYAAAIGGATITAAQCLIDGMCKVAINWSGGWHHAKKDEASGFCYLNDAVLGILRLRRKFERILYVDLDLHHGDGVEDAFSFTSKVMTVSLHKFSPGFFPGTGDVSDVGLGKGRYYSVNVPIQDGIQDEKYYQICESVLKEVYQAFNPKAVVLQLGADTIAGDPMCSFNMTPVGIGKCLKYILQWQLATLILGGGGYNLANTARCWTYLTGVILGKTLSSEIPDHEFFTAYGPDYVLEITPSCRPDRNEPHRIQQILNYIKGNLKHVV

[5] = target: T2, HDAC 6 (Homo sapiens, UniProt Q9UBN7); assay: Recombinant HDAC 6 inhibition; format: biochemical
T2 sequence (Q9UBN7 1-1215): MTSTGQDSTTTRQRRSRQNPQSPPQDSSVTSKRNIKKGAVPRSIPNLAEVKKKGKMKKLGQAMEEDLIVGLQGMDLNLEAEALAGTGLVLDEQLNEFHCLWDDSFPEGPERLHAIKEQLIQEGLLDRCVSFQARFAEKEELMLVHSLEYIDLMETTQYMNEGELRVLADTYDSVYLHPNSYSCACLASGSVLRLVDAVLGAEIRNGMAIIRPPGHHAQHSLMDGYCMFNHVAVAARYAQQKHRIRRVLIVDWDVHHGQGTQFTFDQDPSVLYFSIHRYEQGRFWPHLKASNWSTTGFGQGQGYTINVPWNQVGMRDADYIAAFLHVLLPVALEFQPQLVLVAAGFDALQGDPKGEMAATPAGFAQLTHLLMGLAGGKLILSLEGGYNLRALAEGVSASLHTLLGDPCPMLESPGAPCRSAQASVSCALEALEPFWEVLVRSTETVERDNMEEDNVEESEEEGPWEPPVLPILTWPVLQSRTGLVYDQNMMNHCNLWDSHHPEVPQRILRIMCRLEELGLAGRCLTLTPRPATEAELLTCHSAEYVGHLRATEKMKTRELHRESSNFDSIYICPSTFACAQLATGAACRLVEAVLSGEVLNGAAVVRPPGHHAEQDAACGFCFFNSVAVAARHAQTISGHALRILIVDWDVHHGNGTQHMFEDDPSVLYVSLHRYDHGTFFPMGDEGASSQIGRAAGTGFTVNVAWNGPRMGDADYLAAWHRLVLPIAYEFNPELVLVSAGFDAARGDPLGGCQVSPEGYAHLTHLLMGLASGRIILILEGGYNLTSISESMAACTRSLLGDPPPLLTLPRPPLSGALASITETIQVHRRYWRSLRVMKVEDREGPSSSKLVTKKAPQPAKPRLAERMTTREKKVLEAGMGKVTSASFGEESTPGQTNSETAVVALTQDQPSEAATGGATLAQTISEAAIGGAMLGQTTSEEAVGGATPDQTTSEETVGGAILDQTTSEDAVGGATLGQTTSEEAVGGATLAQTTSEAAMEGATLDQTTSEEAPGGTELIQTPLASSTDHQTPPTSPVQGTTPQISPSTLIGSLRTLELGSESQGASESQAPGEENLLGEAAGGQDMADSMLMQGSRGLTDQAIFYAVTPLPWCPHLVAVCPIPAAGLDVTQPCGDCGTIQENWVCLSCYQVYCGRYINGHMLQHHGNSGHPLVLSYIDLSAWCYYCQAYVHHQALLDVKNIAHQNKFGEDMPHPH

[6] = system: acetylated histones H4 and H3; assay: Western blot of histone H4 and H3 acetylation in DU-145 cells; format: cell-based, human; details: DU-145, 24 h; SAHA 2.5, 5 μM; DAU 0.1, 0.5 μM; 7 0.5, 1 μM; 12b 2.5, 5 μM
[7] = target: HDAC 1 (Homo sapiens, UniProt Q13547); assay: Recombinant HDAC 1 inhibition; details: 12c vs 12a
Sequence of HDAC 1 (Q13547 whole entry): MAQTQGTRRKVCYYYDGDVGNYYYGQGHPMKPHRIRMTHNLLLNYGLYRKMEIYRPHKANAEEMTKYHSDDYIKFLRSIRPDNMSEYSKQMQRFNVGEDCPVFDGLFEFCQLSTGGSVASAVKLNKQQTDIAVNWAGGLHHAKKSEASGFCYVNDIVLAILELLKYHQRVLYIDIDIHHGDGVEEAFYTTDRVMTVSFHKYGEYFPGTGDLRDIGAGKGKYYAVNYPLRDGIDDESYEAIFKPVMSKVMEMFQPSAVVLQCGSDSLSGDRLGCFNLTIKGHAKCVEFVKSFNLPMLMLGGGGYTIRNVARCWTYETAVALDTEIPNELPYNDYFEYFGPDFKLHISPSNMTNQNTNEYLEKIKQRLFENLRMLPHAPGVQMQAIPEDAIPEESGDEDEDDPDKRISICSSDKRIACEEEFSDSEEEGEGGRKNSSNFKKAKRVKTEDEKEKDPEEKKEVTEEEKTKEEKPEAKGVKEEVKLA

[8] = system: HeLa cell nuclear extract HDACs (HDAC 1/2); assay: In vitro HDAC inhibition, HeLa nuclear extract; format: biochemical; details: relative to 12a

Compound: COc1cccc2c1C(=O)c1c(O)c3c(c(O)c1C2=O)C[C@@](O)(C(C)=O)C[C@@H]3O[C@H]1C[C@H](NCc2ccc(NC(=O)CCCCCCC(=O)NO)cc2)[C@H](O)[C@H](C)O1 [Compound 7, Daunorubicin-N-benzyl-4-amino-8-oxooctahydroxamic Acid]
- Topo II inhibition (KDNA decatenation) [1]: comparable levels to that of DAU
- stabilized Topo II-DNA cleavage complexes, 30 min treatment [2]: indistinguishable from that of the control cells
- stabilized Topo II-DNA cleavage complexes, 72 hour treatment [2]: measured increase in Topo II inhibition
- tubulin acetylation (immunoblot) [3]: moderate levels of acetylation
- anti-HDAC 8 activity, fold less than anti-HDAC 1 activity [4]: about 4 fold

Compound: COc1cccc2c1C(=O)c1c(O)c3c(c(O)c1C2=O)C[C@@](O)(C(C)=O)C[C@@H]3O[C@H]1C[C@H](NCc2ccc(-c3cn(CCCCC(=O)NO)nn3)cc2)[C@H](O)[C@H](C)O1 [Compound 12a, Daunorubicin-N-benzyl-4-triazolylpentahydroxamic Acid]
- IC50 [5]: 600 nM
- Topo II inhibition (KDNA decatenation) [1]: lower Topo II inhibition activity

Compound: COc1cccc2c1C(=O)c1c(O)c3c(c(O)c1C2=O)C[C@@](O)(C(C)=O)C[C@@H]3O[C@H]1C[C@H](NCc2ccc(-c3cn(CCCCCC(=O)NO)nn3)cc2)[C@H](O)[C@H](C)O1 [Compound 12b, Daunorubicin-N-benzyl-4-triazolylhexahydroxamic Acid]
- Topo II inhibition (KDNA decatenation) [1]: comparable levels to that of DAU
- histone H4 acetylation (immunoblot) [6]: strong H4 acetylation
- stabilized Topo II-DNA cleavage complexes, 30 min treatment [2]: significantly higher amount
- stabilized Topo II-DNA cleavage complexes, 72 hour treatment [2]: drastic drop
- tubulin acetylation (immunoblot) [3]: robust acetylation

Compound: COc1cccc2c1C(=O)c1c(O)c3c(c(O)c1C2=O)C[C@@](O)(C(C)=O)C[C@@H]3O[C@H]1C[C@H](NCc2ccc(-c3cn(CCCCCCC(=O)NO)nn3)cc2)[C@H](O)[C@H](C)O1 [Compound 12c, Daunorubicin-N-benzyl-4-triazolylheptahydroxamic Acid]
- Topo II inhibition (KDNA decatenation) [1]: near total inhibition
- fold activity difference between 12a and 12c, HDAC inhibitory activity [7]: ~ 600 fold

Compound: COc1cccc2c1C(=O)c1c(O)c3c(c(O)c1C2=O)C[C@@](O)(C(C)=O)C[C@@H]3O[C@H]1C[C@H](NCc2ccc(-c3cn(CCCCCCCC(=O)NO)nn3)cc2)[C@H](O)[C@H](C)O1 [Compound 12d, Daunorubicin-N-benzyl-4-triazolyloctahydroxamic Acid]
- fold more potent than 12a, HeLa nuclear extract HDACs [8]: about 20 fold
- Topo II inhibition (KDNA decatenation) [1]: lower Topo II inhibition activity

Compound: COc1cccc2c1C(=O)c1c(O)c3c(c(O)c1C2=O)C[C@@](O)(C(C)=O)C[C@@H]3O[C@H]1C[C@H](N)[C@H](O)[C@H](C)O1 [DAU, daunomycin, reference compound]
- Topo II inhibition (KDNA decatenation) [1]: severe impairment of DNA decatenation
- stabilized Topo II-DNA cleavage complexes, 30 min treatment [2]: high levels
- stabilized Topo II-DNA cleavage complexes, 72 hour treatment [2]: significant inhibition of Topo II activity
- tubulin acetylation (immunoblot) [3]: lowest levels of acetylation

Reference: publication PMC3306125 (Journal of Medicinal Chemistry, 2012)
